# Measured values published in ChEMBL document CHEMBL1255172, “Discovery and structure-activity relationship of a novel spirocarbamate series of NPY Y5 antagonists” (Bioorg Med Chem Lett, 2010).
# pKi: −log10 of the molar value.
# What was measured:
# Cytochrome P450 2C9 = Cytochrome P450 2C9 (Homo sapiens, UniProt P11712); experiment: Inhibition of CYP2C9; format: ADME
# Cytochrome P450 2D6 = Cytochrome P450 2D6 (Homo sapiens, UniProt P10635); experiment: Inhibition of CYP2D6; format: ADME
# Cytochrome P450 1A2 = target: T1, Cytochrome P450 1A2 (Homo sapiens, UniProt P05177); experiment: Inhibition of CYP1A2; format: ADME
# T1 sequence (P05177 whole entry): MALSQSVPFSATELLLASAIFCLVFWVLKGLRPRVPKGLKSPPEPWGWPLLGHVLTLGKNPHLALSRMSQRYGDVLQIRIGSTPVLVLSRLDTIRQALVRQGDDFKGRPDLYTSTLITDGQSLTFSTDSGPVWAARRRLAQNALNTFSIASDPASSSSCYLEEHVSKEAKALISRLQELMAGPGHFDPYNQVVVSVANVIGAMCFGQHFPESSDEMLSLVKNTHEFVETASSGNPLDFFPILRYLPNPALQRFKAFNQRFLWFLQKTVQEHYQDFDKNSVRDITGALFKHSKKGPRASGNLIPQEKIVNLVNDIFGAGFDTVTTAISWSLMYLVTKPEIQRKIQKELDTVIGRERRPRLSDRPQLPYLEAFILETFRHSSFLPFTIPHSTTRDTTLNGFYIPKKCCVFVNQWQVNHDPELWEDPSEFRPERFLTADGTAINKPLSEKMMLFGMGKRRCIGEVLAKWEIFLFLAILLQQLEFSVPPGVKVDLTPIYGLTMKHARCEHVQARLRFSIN
# [1] = Clearance in rat blood at 0.5 mg/kg, iv and 1 mg/kg, po; format: ADME, organism-based; details: whole blood
# Cytochrome P450 3A4 = Cytochrome P450 3A4 (Homo sapiens, UniProt P08684); experiment: Inhibition of CYP3A4; format: ADME
# Chain of Cytochrome P450 3A4 (P08684 whole entry): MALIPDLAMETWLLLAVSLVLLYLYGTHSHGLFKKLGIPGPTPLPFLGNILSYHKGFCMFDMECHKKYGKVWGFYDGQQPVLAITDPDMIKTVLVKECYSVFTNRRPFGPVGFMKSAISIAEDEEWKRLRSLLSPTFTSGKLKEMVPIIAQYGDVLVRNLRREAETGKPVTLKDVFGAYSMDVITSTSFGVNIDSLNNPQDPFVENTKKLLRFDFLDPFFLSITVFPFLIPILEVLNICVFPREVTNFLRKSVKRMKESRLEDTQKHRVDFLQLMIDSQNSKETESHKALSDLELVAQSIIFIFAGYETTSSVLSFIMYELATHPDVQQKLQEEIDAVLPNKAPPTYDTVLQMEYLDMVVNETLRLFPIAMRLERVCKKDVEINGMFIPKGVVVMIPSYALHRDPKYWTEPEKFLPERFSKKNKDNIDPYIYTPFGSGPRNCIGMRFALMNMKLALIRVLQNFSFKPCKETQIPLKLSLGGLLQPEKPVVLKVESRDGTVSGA
# Cytochrome P450 2C19 = Cytochrome P450 2C19 (Homo sapiens, UniProt P33261); experiment: Inhibition of CYP2C19; format: ADME
# Chain of Cytochrome P450 2C19 (P33261 whole entry): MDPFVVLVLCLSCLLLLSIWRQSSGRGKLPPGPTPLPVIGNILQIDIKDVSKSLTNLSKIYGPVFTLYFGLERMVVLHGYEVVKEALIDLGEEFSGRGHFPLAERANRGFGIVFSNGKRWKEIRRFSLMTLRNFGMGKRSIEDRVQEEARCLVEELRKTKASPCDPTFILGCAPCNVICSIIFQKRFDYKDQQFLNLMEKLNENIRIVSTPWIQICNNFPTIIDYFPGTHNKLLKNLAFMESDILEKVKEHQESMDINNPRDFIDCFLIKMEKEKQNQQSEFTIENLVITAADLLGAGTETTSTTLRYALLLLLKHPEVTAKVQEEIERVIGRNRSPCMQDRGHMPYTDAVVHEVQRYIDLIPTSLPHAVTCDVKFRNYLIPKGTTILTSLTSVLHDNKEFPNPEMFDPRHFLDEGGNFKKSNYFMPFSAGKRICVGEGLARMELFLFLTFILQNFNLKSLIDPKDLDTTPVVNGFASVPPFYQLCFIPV
# Liver microsomes [2] = experiment: Intrinsic clearance in human liver microsome; format: ADME
# Liver microsomes [3] = experiment: Intrinsic clearance in rat liver microsome; format: ADME
# [4] = target: T2, Neuropeptide Y receptor type 5 (Homo sapiens, UniProt Q15761); experiment: Antagonist activity at human NPY Y5 receptor; format: functional
# T2 sequence (Q15761 whole entry): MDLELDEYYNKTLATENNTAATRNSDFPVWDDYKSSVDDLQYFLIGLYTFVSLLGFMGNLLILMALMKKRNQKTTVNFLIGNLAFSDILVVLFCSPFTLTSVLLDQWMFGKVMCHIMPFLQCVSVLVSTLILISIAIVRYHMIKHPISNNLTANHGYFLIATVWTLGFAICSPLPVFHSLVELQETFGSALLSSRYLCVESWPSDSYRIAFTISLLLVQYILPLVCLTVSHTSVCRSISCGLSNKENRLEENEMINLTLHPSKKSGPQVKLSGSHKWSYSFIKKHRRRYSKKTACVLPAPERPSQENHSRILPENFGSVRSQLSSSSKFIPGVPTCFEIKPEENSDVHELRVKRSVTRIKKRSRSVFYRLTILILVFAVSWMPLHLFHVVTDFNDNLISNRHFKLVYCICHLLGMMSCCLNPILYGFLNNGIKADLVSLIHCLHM
# [5] = Protein binding in rat brain assessed as unbound fraction; format: ADME, tissue-based; details: brain tissue
# [6] = Oral bioavailability in rat at 1 mg/kg; format: ADME, organism-based; details: in vivo
# [7] = Ratio of drug uptake from blood to brain in rat; format: ADME, tissue-based; details: brain and blood
# Rattus norvegicus = experiment: In vivo antagonist activity at NPY Y5 receptor in orally dosed rat assessed as reduction in food intake; details: oral, read-out: MED
# Chain of Cytochrome P450 2D6 (P10635 whole entry): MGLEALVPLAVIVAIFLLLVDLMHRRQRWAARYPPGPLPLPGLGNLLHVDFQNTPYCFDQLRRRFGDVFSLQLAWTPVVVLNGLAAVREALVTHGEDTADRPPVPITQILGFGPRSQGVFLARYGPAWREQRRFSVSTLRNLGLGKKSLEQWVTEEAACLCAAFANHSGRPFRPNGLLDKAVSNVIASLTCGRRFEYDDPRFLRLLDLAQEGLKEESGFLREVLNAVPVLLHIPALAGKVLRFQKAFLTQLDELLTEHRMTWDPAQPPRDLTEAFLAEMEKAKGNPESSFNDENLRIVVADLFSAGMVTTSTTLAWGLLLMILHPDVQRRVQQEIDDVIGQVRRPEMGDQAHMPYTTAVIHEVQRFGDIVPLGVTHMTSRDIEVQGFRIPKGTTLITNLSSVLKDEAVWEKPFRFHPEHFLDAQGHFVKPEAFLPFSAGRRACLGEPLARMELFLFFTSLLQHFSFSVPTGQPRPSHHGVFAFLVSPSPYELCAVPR
# Chain of Cytochrome P450 2C9 (P11712 whole entry): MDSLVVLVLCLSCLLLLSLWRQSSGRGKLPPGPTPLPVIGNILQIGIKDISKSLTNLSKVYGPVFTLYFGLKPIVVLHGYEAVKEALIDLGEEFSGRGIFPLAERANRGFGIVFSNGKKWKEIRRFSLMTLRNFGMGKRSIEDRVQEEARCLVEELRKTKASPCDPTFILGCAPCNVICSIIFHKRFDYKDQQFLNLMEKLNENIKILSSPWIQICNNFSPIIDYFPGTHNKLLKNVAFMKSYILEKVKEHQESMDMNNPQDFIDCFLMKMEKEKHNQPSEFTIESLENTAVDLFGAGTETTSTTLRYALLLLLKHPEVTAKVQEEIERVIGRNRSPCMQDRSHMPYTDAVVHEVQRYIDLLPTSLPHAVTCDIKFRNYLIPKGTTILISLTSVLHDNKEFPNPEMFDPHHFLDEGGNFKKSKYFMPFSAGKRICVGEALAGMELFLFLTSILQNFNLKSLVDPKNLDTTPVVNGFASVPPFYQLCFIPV
SMILES,INH (Cytochrome P450 2C9) [µM],INH (Cytochrome P450 2D6) [µM],INH (Cytochrome P450 1A2) [µM],clearance [1] [mL/min/kg],INH (Cytochrome P450 3A4) [µM],INH (Cytochrome P450 2C19) [µM],clearance (Liver microsomes [2]) [mL/min/g],clearance (Liver microsomes [3]) [mL/min/g],pKi [4],fraction unbound [5],CL (Liver microsomes [2]) [mL/min/g],CL (Liver microsomes [3]) [mL/min/g],bioavailability [6] [%],Kp [7],minimal effective dose (Rattus norvegicus) [mg/kg]
O=C(Nc1nc(-c2ccccn2)cs1)N1CCC2(CC1)CN(c1ccccc1)C(=O)O2,> 10,> 10,> 10,–,> 10,> 10,0.6,0.5,–,–,–,–,–,–,–
O=C1O[C@]2(CC[C@H](CNc3cnn(-c4ccccc4F)c3)CC2)CN1c1cccnc1,7,> 10,> 10,–,1,8,–,–,10.00,0.025,–,–,–,–,–
O=C1O[C@]2(CC[C@H](CNc3ccc(-c4ncccn4)cn3)CC2)CN1c1ccccn1,5,> 10,> 10,–,> 10,10,–,–,9.80,0.035,–,–,–,–,–
O=C1O[C@]2(CC[C@H](CNc3ccc(OC4CCC4)cn3)CC2)CN1c1ccccn1,2,2,> 10,–,3,7,–,–,9.80,–,–,–,–,–,–
O=C1O[C@]2(CC[C@H](CNc3ccc(C(F)(F)F)cn3)CC2)CN1c1ccccn1,2,> 10,> 10,–,> 10,5,–,–,9.00,0.005,–,–,–,–,–
O=C1O[C@]2(CC[C@H](CNc3ccc(-c4ccccc4F)nc3)CC2)CN1c1ccccn1,1,2,–,–,9,9,–,–,8.30,–,–,–,–,–,–
O=C1O[C@]2(CC[C@H](CNc3ccn(-c4ccccc4F)n3)CC2)CN1c1ccccn1,2,> 10,> 10,–,> 10,4,–,–,10.50,–,–,–,–,–,–
O=C1O[C@]2(CC[C@H](CNc3ncc(-c4ccccc4F)cn3)CC2)CN1c1ccccn1,1,> 10,6,–,5,4,–,–,9.50,< 0.01,–,–,–,–,–
O=C1O[C@]2(CC[C@H](CNc3cnn(-c4ccccc4F)c3)CC2)CN1c1cccnn1,> 10,> 10,> 10,13,> 10,–,–,–,10.00,0.031,< 0.5,< 0.5,52,0.9,3
O=C1O[C@]2(CC[C@H](CNc3cnn(-c4ccccc4F)c3)CC2)CN1c1ccnnc1,> 10,> 10,> 10,–,6,> 10,–,–,9.70,0.044,–,–,–,–,–
Cc1nnc(N2C[C@]3(CC[C@@H](CNc4cnn(-c5ccccc5F)c4)CC3)OC2=O)s1,> 10,> 10,> 10,–,6,> 10,–,–,9.70,0.026,–,–,–,–,–
O=C1O[C@]2(CC[C@H](CNc3ccc(-c4ncccn4)cn3)CC2)CN1c1cccnn1,> 10,> 10,> 10,–,–,> 10,–,–,8.80,–,–,–,–,–,–
O=C1O[C@]2(CC[C@H](CNc3ccc(-c4ccccc4F)nn3)CC2)CN1c1cccnn1,> 10,> 10,> 10,18,> 10,> 10,–,–,9.80,0.046,< 0.5,< 0.5,90,0.25,–
O=C1O[C@]2(CC[C@H](CNc3ccc(-c4cc(F)cc(F)c4)nn3)CC2)CN1c1cccnn1,8,> 10,> 10,41,> 10,–,–,–,10.00,0.016,< 0.5,< 0.5,75,1.6,3
Cc1ccccc1-c1ccc(NC[C@H]2CC[C@]3(CC2)CN(c2cccnn2)C(=O)O3)nn1,> 10,> 10,> 10,–,> 10,> 10,–,–,10.20,0.051,–,–,–,–,–

# Continued, in another order:
INH (Cytochrome P450 2C9) [µM],INH (Cytochrome P450 2D6) [µM],INH (Cytochrome P450 1A2) [µM],clearance [1] [mL/min/kg],INH (Cytochrome P450 3A4) [µM],INH (Cytochrome P450 2C19) [µM],clearance (Liver microsomes [2]) [mL/min/g],clearance (Liver microsomes [3]) [mL/min/g],pKi [4],fraction unbound [5],CL (Liver microsomes [2]) [mL/min/g],CL (Liver microsomes [3]) [mL/min/g],bioavailability [6] [%],Kp [7],SMILES,minimal effective dose (Rattus norvegicus) [mg/kg]
< 0.1,< 0.1,< 0.1,27,< 0.1,< 0.1,–,–,–,–,–,–,–,–,FC(F)(F)c1ccc(Nc2nc(-c3ccccn3)cs2)cc1,–
> 10,> 10,> 10,–,> 10,–,–,–,9.20,–,–,–,–,–,Cc1ncccc1N1C[C@]2(CC[C@@H](CNc3cnn(-c4ccccc4F)c3)CC2)OC1=O,–
0.3,1,> 10,–,7,3,–,–,9.90,–,–,–,–,–,O=C1O[C@]2(CC[C@H](CNc3ccc(-c4nccs4)cn3)CC2)CN1c1ccccn1,–
1,2,5,–,> 10,2,–,–,10.20,0.016,–,–,–,–,O=C1O[C@]2(CC[C@H](CNc3ccc(-c4ccccc4F)nn3)CC2)CN1c1ccccn1,–
0.3,> 10,> 10,–,> 10,2,–,–,10.60,0.002,–,–,–,–,O=C1O[C@]2(CC[C@H](CNc3cnc(-c4ccccc4F)cn3)CC2)CN1c1ccccn1,–
6,> 10,> 10,30,3,3,–,–,10.10,0.01,4,3.1,35,0.7,O=C1O[C@]2(CC[C@H](CNc3nc(-c4ccccn4)cs3)CC2)CN1c1ccccn1,10
> 10,> 10,> 10,–,2,6,–,–,10.40,0.044,–,–,–,–,O=C1O[C@]2(CC[C@H](CNc3cnn(-c4ccccc4F)c3)CC2)CN1c1cncnc1,–
6,> 10,> 10,–,5,8,–,–,10.00,0.019,–,–,–,–,O=C1O[C@]2(CC[C@H](CNc3cnn(-c4ccccc4F)c3)CC2)CN1c1cccnc1F,–
3,2,> 10,–,0.6,2,–,–,10.20,0.017,–,–,–,–,O=C1O[C@]2(CC[C@H](CNc3cnn(-c4ccccc4F)c3)CC2)CN1c1cnccn1,–
> 10,> 10,> 10,–,> 10,> 10,–,–,9.60,0.056,–,–,–,–,Cc1cccc(-c2ccc(NC[C@H]3CC[C@]4(CC3)CN(c3cccnn3)C(=O)O4)nc2)n1,–
> 10,> 10,> 10,70,> 10,> 10,–,–,9.50,0.052,–,–,50,0.4,O=C1O[C@]2(CC[C@H](CNc3ccc(-c4ncccc4F)cn3)CC2)CN1c1cccnn1,–
